According to patent US10077258B2, “Substituted pyrimidine compounds as phosphatidylinositol 3-kinase delta inhibitor and use thereof” (NANJING SANHOME PHARMACEUTICAL CO., LTD., priority 2015, dated 2018):

How the values were obtained:
PI3Kα = biological target: T1, PI3Kα (Homo sapiens, UniProt P42336); assay: In vitro kinase activity (LabChip EZ Reader mobility shift), PI3Kα; assay type: biochemical; conditions: kinase subtype PI3Kα (p110α/p85a)
T1 construct: purchased Invitrogen PV4788
Experimental: (§1) Compounds: the compounds prepared in above examples of the present invention, each of which was prepared to a concentration of 10 mM in DMSO and diluted to […], 100 nM, 10 nM, 1 nM, 0.1 nM, 0.01 nM successively.
(§2) Reagents: PI3Kα (p110α(p85a), purchased from Invitrogen, Cat.No. PV4788; PIK3Cδ (p110δ/p85a), purchased from Millipore, Cat.No. 14-604-K; PIK3Cβ (p110β), purchased from Millipore, Cat.No. 14-603-K; PIK3Cγ (pp110γ), purchased from Invitrogen, Cat.No. PR8641C; DMSO, purchased from Sigma; EDTA, purchased from Sigma; 1× kinase buffer (50 mM HEPES, pH 7.5, 0.0015% Brij-35, 10 mM MgCl2, 2 mM DTT), which was prepared before use; termination solution (100 mM HEPES, pH 7.5, 0.015% Brij-35, 0.2% Coating Reagent#3, 50 mM EDTA), which was prepared before use.
(§3) Instruments: LabChip EZ Reader purchased from Caliper, USA.
(§4) 2.1 10 μl solution of each concentration of each compound was placed into 96-well plate and 90 μl of 1× kinase buffer was added. DMSO control group and control group without kinase activity were set up, which all contained 10 μl DMSO and 90 μl of 1× kinase buffer. Each group was mixed well at room temperature for 10 min, and then 5 μl of each group was transferred to a 384-well plate.
(§5) 2.2 Kinases were dissolved in 1× kinase buffer to prepare a 2.5× kinase solution. 10 μl of 2.5× kinase solution was transferred to the 384-well plate containing compounds of different concentrations. 10 μl of 2.5× kinase solution was added to DMSO control group and 10 μl of 1× kinase buffer without kinase was added to control group without kinase activity. The plate was incubated at room temperature for 10 min.
(§6) 2.3 ATP and the polypeptide labeled with FAM were dissolved in 1× kinase buffer to prepare 2.5× substrate solution. Then 10 μl of 2.5× substrate solution was transferred to the 384-well plate and incubated at 28° C. for 1 h.
(§7) 2.4 25 μl of termination solution was added to each well to terminate the reaction.
(§8) 2.5 The plate was placed on the LabChip EZ Reader to read the data of conversion rate and inhibitory rate (1%) was calculated according to formula: I %=(Max−Com)/(Max−Min)×100, wherein Max was the conversion rate of DMSO control group, Min was the conversion rate of control group without kinase activity, Com was the conversion rate of compound treatment group. IC50 was fitted by XLfit processing of the data.

PI3Kγ = biological target: T2, PI3Kγ (Homo sapiens, UniProt P48736); assay: In vitro kinase activity (LabChip EZ Reader mobility shift), PI3Kγ; assay type: biochemical; conditions: kinase subtype PI3Kγ (p110γ)
T2 construct: purchased Invitrogen PR8641C
T2 sequence (P48736 whole entry): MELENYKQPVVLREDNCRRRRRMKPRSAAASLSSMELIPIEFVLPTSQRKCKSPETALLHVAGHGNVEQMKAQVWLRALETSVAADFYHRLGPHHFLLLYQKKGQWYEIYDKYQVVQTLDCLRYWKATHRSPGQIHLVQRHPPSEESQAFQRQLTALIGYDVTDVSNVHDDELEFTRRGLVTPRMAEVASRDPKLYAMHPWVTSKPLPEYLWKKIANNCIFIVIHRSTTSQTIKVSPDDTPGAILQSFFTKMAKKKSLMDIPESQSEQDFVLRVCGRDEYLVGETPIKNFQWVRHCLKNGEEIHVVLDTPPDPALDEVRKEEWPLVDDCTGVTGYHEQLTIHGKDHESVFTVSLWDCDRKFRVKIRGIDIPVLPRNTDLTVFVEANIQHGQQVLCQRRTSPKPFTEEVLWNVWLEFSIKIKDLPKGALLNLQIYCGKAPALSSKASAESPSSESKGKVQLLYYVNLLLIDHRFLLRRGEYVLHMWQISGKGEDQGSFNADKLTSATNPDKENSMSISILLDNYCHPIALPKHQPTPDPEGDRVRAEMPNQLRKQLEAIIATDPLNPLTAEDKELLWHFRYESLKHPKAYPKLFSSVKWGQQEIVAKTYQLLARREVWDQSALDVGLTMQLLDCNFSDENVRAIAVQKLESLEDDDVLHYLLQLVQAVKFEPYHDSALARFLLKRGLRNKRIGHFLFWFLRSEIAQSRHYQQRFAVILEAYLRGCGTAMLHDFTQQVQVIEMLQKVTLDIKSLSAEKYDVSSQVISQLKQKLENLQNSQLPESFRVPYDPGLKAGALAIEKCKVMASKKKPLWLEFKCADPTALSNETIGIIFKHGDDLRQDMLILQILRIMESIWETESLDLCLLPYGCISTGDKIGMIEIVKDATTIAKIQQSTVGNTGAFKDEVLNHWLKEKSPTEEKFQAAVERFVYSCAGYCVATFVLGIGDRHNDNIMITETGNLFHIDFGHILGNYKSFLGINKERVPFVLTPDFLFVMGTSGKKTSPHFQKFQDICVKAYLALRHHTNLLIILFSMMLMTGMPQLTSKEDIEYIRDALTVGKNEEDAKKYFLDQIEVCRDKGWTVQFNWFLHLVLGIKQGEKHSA
Experimental: as §1, §2, §3, §4, §5, §6, §7, §8

PI3Kδ = biological target: T3, PI3Kδ (Homo sapiens, UniProt O00329); assay: In vitro kinase activity (LabChip EZ Reader mobility shift), PI3Kδ; assay type: biochemical; conditions: kinase subtype PI3Kδ (p110δ/p85a)
T3 construct: purchased Millipore 14-604-K
T3 sequence (O00329 whole entry): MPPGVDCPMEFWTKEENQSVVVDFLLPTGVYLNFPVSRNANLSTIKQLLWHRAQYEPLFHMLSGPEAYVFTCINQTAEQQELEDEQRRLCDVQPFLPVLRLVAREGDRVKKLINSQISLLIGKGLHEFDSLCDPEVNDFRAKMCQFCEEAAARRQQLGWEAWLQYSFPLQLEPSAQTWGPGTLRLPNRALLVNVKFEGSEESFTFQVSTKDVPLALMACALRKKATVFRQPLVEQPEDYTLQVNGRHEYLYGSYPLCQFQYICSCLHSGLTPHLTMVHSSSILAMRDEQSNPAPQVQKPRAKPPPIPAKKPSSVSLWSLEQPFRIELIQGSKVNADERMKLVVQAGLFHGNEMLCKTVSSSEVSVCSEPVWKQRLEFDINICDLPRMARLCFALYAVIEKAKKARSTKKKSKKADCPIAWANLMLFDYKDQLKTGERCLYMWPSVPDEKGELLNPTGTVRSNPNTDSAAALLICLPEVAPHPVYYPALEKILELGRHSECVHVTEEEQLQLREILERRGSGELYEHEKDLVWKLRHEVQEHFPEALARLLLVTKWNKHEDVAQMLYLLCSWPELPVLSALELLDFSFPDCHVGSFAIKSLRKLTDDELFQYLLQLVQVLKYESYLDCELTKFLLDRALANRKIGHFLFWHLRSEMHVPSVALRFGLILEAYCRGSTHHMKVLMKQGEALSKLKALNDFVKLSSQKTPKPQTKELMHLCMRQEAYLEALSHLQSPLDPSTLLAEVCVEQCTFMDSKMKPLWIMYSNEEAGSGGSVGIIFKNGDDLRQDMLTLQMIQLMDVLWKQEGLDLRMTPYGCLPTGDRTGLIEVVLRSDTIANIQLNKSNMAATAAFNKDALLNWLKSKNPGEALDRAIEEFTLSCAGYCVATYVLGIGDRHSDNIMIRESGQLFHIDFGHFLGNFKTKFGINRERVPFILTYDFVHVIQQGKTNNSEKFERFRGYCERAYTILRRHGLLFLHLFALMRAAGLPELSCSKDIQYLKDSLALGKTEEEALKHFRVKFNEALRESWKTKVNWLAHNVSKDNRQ
T3 sequence (P27986 whole entry partner): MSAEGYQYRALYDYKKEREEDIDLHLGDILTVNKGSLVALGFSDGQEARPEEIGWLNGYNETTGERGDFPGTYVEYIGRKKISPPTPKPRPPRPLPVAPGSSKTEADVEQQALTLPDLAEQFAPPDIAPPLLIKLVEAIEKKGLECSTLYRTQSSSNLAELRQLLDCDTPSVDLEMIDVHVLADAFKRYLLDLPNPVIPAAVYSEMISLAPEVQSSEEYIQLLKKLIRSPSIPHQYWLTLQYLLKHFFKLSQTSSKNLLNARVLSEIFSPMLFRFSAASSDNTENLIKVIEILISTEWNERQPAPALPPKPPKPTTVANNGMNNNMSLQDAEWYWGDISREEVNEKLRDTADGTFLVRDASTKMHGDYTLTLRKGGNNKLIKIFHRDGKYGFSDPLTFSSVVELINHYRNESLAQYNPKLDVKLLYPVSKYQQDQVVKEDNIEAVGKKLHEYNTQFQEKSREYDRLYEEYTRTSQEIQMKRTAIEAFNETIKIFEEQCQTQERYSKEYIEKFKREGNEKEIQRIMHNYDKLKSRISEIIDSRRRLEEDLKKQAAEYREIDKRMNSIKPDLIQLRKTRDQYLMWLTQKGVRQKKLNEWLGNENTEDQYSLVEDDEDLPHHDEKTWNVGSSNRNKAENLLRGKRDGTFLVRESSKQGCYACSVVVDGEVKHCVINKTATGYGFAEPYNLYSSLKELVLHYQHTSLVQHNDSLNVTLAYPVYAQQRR
Experimental: as §1, §2, §3, §4, §5, §6, §7, §8

SU-DHL-5 lymphoma cells = assay: In vitro cell activity, CellTiter-Glo cell viability, SU-DHL-5; assay type: cell-based; conditions: Homo sapiens, SU-DHL-5 lymphoma cell line, 72 h
Experimental: (§9) Compounds: the compounds prepared in above examples of the present invention, each of which was prepared to a concentration of 10 mM in DMSO and diluted 3 times to 20000.00 nM, 6666.67 nM, 2222.22 nM, 740.74 nM, 246.91 nM, 27.43 nM, 9.14 nM, 3.05 nM successively.
(§10) The lymphoma cell lines SU-DHL-5 and SU-DHL-6 were purchased from the American Type Culture Collection (ATCC).
(§11) Reagents: PRMI-1640, purchased from Invitrogen (USA); FBS, purchased from Invitrogen (USA); EDTA, purchased from Sigma (USA); CellTiter-Glo® Luminescent Cell Viability Assay Kit, purchased from Progema (USA); Backseal membrane, purchased from Perkin Elmer (USA).
(§12) The cells were thawed in a 37° C. water bath and then transferred to 15 ml preheated medium. The cells were centrifuged at 1000 rpm for 5 min and the medium was discarded. The cells were resuspended in 15 ml fresh medium and transferred to T75 culture flask and incubated in an incubator at 37° C. with 5% CO2. The medium was replaced with fresh medium 24 h later.
(§13) The resuscitated cells above were transferred to a 50 ml sterile centrifuge tube and centrifuged at 1000 rpm for 5 min. The medium was discarded, and the cells were dispersed uniformly and counted. The appropriate cell concentration was adjusted in 15 ml fresh medium and added to T75 culture flask. The flask was incubated in an incubator at 37° C. with 5% CO2.
When the cells in the T75 culture flask grew to 1×10^5˜1×10^6 cells/ml, the cells were resuspended with fresh medium (RPMI-1640+20% FBS) and counted. The resuspended cells were adjusted to the following eight concentrations: 1×10^4 cells/ml, 2×10^4 cells/ml, 3×10^4 cells/ml, 5×10^4 cells/ml, 8×10^4 cells/ml, 1×10^5 cells/ml, 1.5×10^5 cells/ml, and 2×10^5 cells/ml. The above cell suspensions were added to 96-well cell culture plate, 100 μl each well (1×10^3 cells/ml, 2×10^3 cells/ml, 3×10^3 cells/ml, 5×10^3 cells/ml, 8×10^3 cells/ml, 1×10^4 cells/ml, 1.5×10^4 cells/ml, and 2×10^4 cells/ml, respectively). Each concentration was done double in three plates. 72 h later, 100 μl CellTiter-Glo® Luminescent Cell Viability Assay buffer was added to test wells and shaken gently. 10 min later, the Assay plate was attached at the bottom by Backseal membrane and placed on Envison to detect the fluorescence reading. Cell survive (%) was calculated according to the formula: cell survive (%)=(Com−Min)/(Max−Min), wherein Max was the reading of solvent control group, Min was the reading of control group without cells, and Com was the reading of compound treatment group.

SU-DHL-6 lymphoma cells = assay: In vitro cell activity, CellTiter-Glo cell viability, SU-DHL-6; assay type: cell-based; conditions: Homo sapiens, SU-DHL-6 lymphoma cell line, 72 h
Experimental: as §9, §10, §11, §12, §13
When the cells in the T75 culture flask grew to 1×10^5˜1×10^6 cells/ml, the cells were resuspended with fresh medium (RPMI-1640+20% FBS) and counted. […] 10 min later, the Assay plate was attached at the bottom by Backseal membrane and placed on Envison to detect the fluorescence reading. Cell survive (%) was calculated according to the formula: cell survive (%)=(Com−Min)/(Max−Min), wherein Max was the reading of solvent control group, Min was the reading of control group without cells, and Com was the reading of compound treatment group.

PI3Kβ = biological target: T4, PI3Kβ (Homo sapiens, UniProt P42338); assay: In vitro kinase activity (LabChip EZ Reader mobility shift), PI3Kβ; assay type: biochemical; conditions: kinase subtype PI3Kβ (p110β)
T4 construct: purchased Millipore 14-603-K
T4 sequence (P42338 whole entry): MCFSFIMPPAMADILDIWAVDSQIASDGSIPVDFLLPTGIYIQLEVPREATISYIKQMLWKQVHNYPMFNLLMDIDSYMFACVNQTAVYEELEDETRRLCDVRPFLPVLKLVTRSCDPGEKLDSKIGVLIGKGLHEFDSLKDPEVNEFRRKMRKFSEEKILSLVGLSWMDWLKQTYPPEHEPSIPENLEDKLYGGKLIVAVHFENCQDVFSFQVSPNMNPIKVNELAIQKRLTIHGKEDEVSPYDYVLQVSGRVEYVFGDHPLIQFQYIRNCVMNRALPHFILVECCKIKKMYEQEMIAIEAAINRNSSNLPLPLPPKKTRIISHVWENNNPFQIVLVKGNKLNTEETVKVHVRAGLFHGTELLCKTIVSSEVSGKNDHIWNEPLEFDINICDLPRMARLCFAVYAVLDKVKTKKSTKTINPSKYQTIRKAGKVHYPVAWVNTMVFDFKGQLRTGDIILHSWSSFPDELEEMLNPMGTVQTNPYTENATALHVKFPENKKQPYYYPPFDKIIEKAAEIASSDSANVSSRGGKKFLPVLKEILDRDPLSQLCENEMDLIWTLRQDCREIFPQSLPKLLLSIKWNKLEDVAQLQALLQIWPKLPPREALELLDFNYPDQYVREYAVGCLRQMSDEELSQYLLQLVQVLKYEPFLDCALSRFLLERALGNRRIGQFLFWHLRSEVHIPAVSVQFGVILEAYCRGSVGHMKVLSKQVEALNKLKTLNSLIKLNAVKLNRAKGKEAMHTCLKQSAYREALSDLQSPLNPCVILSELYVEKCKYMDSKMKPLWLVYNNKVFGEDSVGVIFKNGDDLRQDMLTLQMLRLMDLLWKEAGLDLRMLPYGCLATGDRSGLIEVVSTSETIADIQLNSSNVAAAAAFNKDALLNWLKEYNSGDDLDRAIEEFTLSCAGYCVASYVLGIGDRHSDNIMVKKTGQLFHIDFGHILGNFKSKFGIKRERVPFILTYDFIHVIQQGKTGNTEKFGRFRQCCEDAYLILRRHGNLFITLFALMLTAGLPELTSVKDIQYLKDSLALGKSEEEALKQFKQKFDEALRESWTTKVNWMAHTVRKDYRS
T4 sequence (P27986 whole entry partner): as the sequence (P27986 whole entry partner) above
Experimental: as §1, §2, §3, §4, §5, §6, §7, §8

T1 sequence (P42336 whole entry): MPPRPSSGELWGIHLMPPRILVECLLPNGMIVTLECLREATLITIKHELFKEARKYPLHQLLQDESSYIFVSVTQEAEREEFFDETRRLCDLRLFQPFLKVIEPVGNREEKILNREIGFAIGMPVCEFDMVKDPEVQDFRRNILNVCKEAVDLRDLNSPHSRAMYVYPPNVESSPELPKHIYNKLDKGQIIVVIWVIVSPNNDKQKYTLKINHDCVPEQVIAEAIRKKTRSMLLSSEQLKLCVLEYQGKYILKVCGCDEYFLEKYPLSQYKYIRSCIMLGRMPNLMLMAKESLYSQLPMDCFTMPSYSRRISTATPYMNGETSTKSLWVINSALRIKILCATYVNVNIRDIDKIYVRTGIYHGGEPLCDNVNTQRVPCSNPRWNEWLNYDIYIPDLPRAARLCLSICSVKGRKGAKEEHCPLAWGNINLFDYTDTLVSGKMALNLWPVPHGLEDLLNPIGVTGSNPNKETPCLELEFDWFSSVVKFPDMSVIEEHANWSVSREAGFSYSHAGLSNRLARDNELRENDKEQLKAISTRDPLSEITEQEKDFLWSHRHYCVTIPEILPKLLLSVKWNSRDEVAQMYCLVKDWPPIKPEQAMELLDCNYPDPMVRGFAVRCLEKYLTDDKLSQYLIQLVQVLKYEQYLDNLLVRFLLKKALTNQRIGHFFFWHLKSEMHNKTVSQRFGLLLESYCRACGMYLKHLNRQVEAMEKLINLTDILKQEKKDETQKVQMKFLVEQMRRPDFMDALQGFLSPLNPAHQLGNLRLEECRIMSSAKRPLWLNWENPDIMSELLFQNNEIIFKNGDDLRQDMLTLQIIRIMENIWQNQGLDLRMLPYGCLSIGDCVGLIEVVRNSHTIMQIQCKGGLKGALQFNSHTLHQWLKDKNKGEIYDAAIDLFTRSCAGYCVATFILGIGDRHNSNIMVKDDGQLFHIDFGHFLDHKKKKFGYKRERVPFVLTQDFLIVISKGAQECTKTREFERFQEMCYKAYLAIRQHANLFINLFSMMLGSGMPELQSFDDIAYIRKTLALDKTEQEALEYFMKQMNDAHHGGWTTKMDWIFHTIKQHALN
T1 sequence (P27986 whole entry partner): as the sequence (P27986 whole entry partner) above

IC50 (PI3Kα) [nM] | IC50 (PI3Kγ) [nM] | IC50 (PI3Kδ) [nM] | IC50 (SU-DHL-5 lymphoma cells) [µM] | IC50 (SU-DHL-6 lymphoma cells) [µM] | IC50 (PI3Kβ) [nM] | SMILES
> 1000 | 83 | 9.2 | 1.41 | 0.014 | 546 | CC(Nc1nc(N)nc(N)c1C#N)c1c(-c2ccccc2)oc2ccccc2c1=O (stereo not drawn) [Example 4, 2,4-Diamino-5-cyano-6-(1-(4-oxo-2-phenyl-4H-chromen-3-yl)ethylamino) pyrimidine]
1070 | 441 | 4.4 | 0.81 | 0.04 | 569 | CC(Nc1ncnc(N)c1C#N)c1c(-c2ccccc2)[nH]c2ccccc2c1=O (stereo not drawn) [Example 10, 4-Amino-5-cyano-6-((1-(4-oxo-2-phenyl-1,4-dihydroquinolin-3-yl)ethyl)amino) pyrimidine]
> 1000 | 905 | 3.2 | 4.63 | 0.16 | 546 | N#Cc1c(N)ncnc1NCc1c(-c2ccccc2)[nH]c2c(Cl)cccc2c1=O [Example 14, 4-Amino-5-cyano-6-(((8-chloro-4-oxo-2-phenyl-1,4-dihydroquinolin-3-yl)methyl)amino)pyrimidine]
